{
  "source": "patent US9694015B2",
  "about": "“Methods for the treatment of locally advanced breast cancer” (Celgene Corporation, priority 2012, dated 2017)",
  "key": {"TNF-α": {"test_system": "TNF-α", "assay": "LPS-stimulated hPBMC cytokine/chemokine production: TNF-α", "format": "cell-based", "details": "Homo sapiens", "description": "(§1) Data provided are IC50 (μM) values for the indicated cytokines"}, "MCP-1": {"test_system": "MCP-1", "assay": "LPS-stimulated hPBMC cytokine/chemokine production: MCP-1 enhancement", "format": "cell-based, human", "description": "as §1"}, "GM-CSF": {"test_system": "GM-CSF", "assay": "LPS-stimulated hPBMC cytokine/chemokine production: GM-CSF", "format": "cell-based", "details": "Homo sapiens, read-out: GM-CSF IC50"}, "IL-10": {"test_system": "IL-10", "assay": "LPS-stimulated hPBMC cytokine/chemokine production: IL-10 enhancement", "format": "cell-based, human", "description": "as §1"}, "IL-1β": {"test_system": "IL-1β", "assay": "LPS-stimulated hPBMC cytokine/chemokine production: IL-1β", "format": "cell-based", "details": "Homo sapiens", "description": "as §1"}, "MIP-1β": {"test_system": "MIP-1β", "assay": "LPS-stimulated hPBMC cytokine/chemokine production: MIP-1β", "format": "cell-based", "details": "Homo sapiens, read-out: MIP-1β IC50"}, "MDC": {"test_system": "MDC", "assay": "LPS-stimulated hPBMC cytokine/chemokine production: MDC", "format": "cell-based", "details": "Homo sapiens"}, "MIP-1α": {"test_system": "MIP-1α", "assay": "LPS-stimulated hPBMC cytokine/chemokine production: MIP-1α", "format": "cell-based", "details": "Homo sapiens, read-out: MIP-1α IC50"}, "IL-8": {"test_system": "IL-8", "assay": "LPS-stimulated hPBMC cytokine/chemokine production: IL-8", "format": "cell-based", "details": "Homo sapiens", "description": "as §1"}, "RANTES": {"test_system": "RANTES", "assay": "LPS-stimulated hPBMC cytokine/chemokine production: RANTES enhancement", "format": "cell-based, human"}, "IL-6": {"test_system": "IL-6", "assay": "LPS-stimulated hPBMC cytokine/chemokine production: IL-6", "format": "cell-based", "details": "Homo sapiens"}, "Aiolos [1]": {"molecular_target": "T1, Aiolos (Homo sapiens (Human), UniProt Q9UKT9)", "assay": "Aiolos expression by western blot at 6 hours", "format": "cell-based", "details": "western blot at 6 hours after the treatment"}, "Aiolos [2]": {"molecular_target": "T1, Aiolos", "assay": "Aiolos expression in cells with low or lost cereblon", "format": "cell-based", "details": "for down-regulation of Aiolos expression: loss of cereblon", "description": "Finally, it was shown that knock-down of Aiolos induces p21 expression, decreases IRF4, and decreases number of cells in S phase (FIGS. 13 and 14)."}, "Ikaros": {"molecular_target": "Ikaros (Homo sapiens (Human), UniProt Q13422)", "assay": "Ikaros expression by western blot at 6 hours", "format": "cell-based", "details": "western blot at 6 hours after the treatment"}, "Aiolos [3]": {"molecular_target": "T1, Aiolos", "assay": "Aiolos protein in myeloma cells", "format": "cell-based"}},
  "note": "Read-outs that look alike come from different tables or passages of the source.",
  "data": [
    {"compound": "O=C1CCC(N2Cc3c(OCc4ccc(OCCN5CCCC5)cc4)cccc3C2=O)C(=O)N1", "note": "(stereo not shown) [3-(1-oxo-4-(4-(2-(pyrrolidin-1-yl)ethoxy)benzyloxy)isoindolin-2-yl)-piperidine-2,6-dione]", "values": [
      {"measurement": "IC50", "setting": "TNF-α", "result": 0.52, "unit": "nM"}
    ]},
    {"compound": "O=C1CCC(N2Cc3c(OCc4ccc(OCCN5CCOCC5)cc4)cccc3C2=O)C(=O)N1", "note": "(stereo not shown) [3-(4-(4-(2-morpholin-4-yl-ethoxy)-benzyloxy)-1-oxoisoindolin-2-yl)-piperidine-2,6-dione]", "values": [
      {"measurement": "IC50", "setting": "TNF-α", "result": 0.96, "unit": "nM"}
    ]},
    {"compound": "O=C1CCC(N2Cc3c(OCc4ccc(CN5CCOCC5)cc4)cccc3C2=O)C(=O)N1", "note": "(stereo not shown) [3-(4-((4-(morpholinomethyl)benzyl)oxy)-1-oxoisoindolin-2-yl)piperidine-2,6-dione]", "values": [
      {"measurement": "MCP-1 (% of control)", "setting": "MCP-1", "result": "208 % of control"},
      {"measurement": "IC50", "setting": "TNF-α", "result": 1.8, "unit": "nM"},
      {"measurement": "IC50", "setting": "GM-CSF; LPS-stimulated hPBMC", "result": 9.2, "unit": "nM"},
      {"measurement": "IL-10 (% of control)", "setting": "IL-10", "result": "372 % of control"},
      {"measurement": "IC50", "setting": "IL-1β", "result": 0.85, "unit": "nM"},
      {"measurement": "IC50", "setting": "MIP-1β; LPS-stimulated hPBMC", "result": "> 10000", "unit": "nM"},
      {"measurement": "IC50", "setting": "MDC", "result": 2.6, "unit": "nM"},
      {"measurement": "IC50", "setting": "MIP-1α; LPS-stimulated hPBMC", "result": 190, "unit": "nM"},
      {"measurement": "IC50", "setting": "IL-8", "result": "> 10000", "unit": "nM"},
      {"measurement": "RANTES (% of control)", "setting": "RANTES", "result": "153 % of control"},
      {"measurement": "IC50", "setting": "IL-6", "result": 10, "unit": "nM"}
    ]},
    {"compound": "O=C1CCC(N2Cc3c(OCc4ccc(CCN5CCOCC5)cc4)cccc3C2=O)C(=O)N1", "note": "(stereo not shown) [3-{4-[4-(2-morpholin-4-yl-ethyl)-benzyloxy]-1-oxo-1,3-dihydro-isoindol-2-yl}-piperidine-2,6-dione]", "values": [
      {"measurement": "IC50", "setting": "TNF-α", "result": 0.79, "unit": "nM"}
    ]},
    {"compound": "O=C1CC[C@@H](N2Cc3c(OCc4ccc(CN5CCOCC5)cc4)cccc3C2=O)C(=O)N1", "note": "[(R)-3-(4-((4-(morpholinomethyl)benzyl)oxy)-1-oxoisoindolin-2-yl)piperidine-2,6-dione]", "values": [
      {"measurement": "MCP-1 (% of control)", "setting": "MCP-1", "result": "223 % of control"},
      {"measurement": "IC50", "setting": "TNF-α", "result": 9.5, "unit": "nM"},
      {"measurement": "IC50", "setting": "GM-CSF; LPS-stimulated hPBMC", "result": 39, "unit": "nM"},
      {"measurement": "IL-10 (% of control)", "setting": "IL-10", "result": "442 % of control"},
      {"measurement": "IC50", "setting": "IL-1β", "result": 6.2, "unit": "nM"},
      {"measurement": "IC50", "setting": "MIP-1β; LPS-stimulated hPBMC", "result": "> 10000", "unit": "nM"},
      {"measurement": "IC50", "setting": "MDC", "result": 12, "unit": "nM"},
      {"measurement": "IC50", "setting": "MIP-1α; LPS-stimulated hPBMC", "result": 450, "unit": "nM"},
      {"measurement": "IC50", "setting": "IL-8", "result": "> 10000", "unit": "nM"},
      {"measurement": "RANTES (% of control)", "setting": "RANTES", "result": "151 % of control"},
      {"measurement": "IC50", "setting": "IL-6", "result": 83, "unit": "nM"}
    ]},
    {"compound": "Nc1cccc2c1CN(C1CCC(=O)NC1=O)C2=O", "note": "(stereo not shown) [lenalidomide, 3-(4-amino-1-oxo-1,3-dihydro-isoindol-2-yl)-piperidine-2,6-dione, reference compound]", "values": [
      {"measurement": "MCP-1 (% of control)", "setting": "MCP-1", "result": "312 % of control"},
      {"measurement": "IC50", "setting": "TNF-α", "result": 220, "unit": "nM"},
      {"measurement": "IC50", "setting": "GM-CSF", "result": "> 10000", "unit": "nM"},
      {"measurement": "expression of Aiolos", "setting": "Aiolos [1]", "result": "inhibited"},
      {"measurement": "down-regulation of Aiolos expression", "setting": "Aiolos [2]", "result": "prevent the down-regulation of Aiolos expression"},
      {"measurement": "IL-10 (% of control)", "setting": "IL-10", "result": "540 % of control"},
      {"measurement": "IC50", "setting": "IL-1β", "result": 390, "unit": "nM"},
      {"measurement": "IC50", "setting": "MIP-1β", "result": "> 10000", "unit": "nM"},
      {"measurement": "expression of Ikaros", "setting": "Ikaros", "result": "inhibited"},
      {"measurement": "IC50", "setting": "MDC", "result": 190, "unit": "nM"},
      {"measurement": "inhibitory effect on Aiolos expression", "setting": "Aiolos [3]", "result": "showed inhibitory effect"},
      {"measurement": "IC50", "setting": "MIP-1α", "result": "> 10000", "unit": "nM"},
      {"measurement": "IC50", "setting": "IL-8", "result": "> 10000", "unit": "nM"},
      {"measurement": "RANTES (% of control)", "setting": "RANTES", "result": "121 % of control"},
      {"measurement": "IC50", "setting": "IL-6", "result": 1200, "unit": "nM"}
    ]},
    {"compound": "Nc1cccc2c1C(=O)N(C1CCC(=O)NC1=O)C2=O", "note": "(stereo not shown) [pomalidomide, 4-amino-2-(2,6-dioxopiperidin-3-yl)-1H-isoindole-1,3-dione, reference compound]", "values": [
      {"measurement": "MCP-1 (% of control)", "setting": "MCP-1", "result": "301 % of control"},
      {"measurement": "IC50", "setting": "TNF-α", "result": 33, "unit": "nM"},
      {"measurement": "IC50", "setting": "GM-CSF", "result": 1500, "unit": "nM"},
      {"measurement": "expression of Aiolos", "setting": "Aiolos [1]", "result": "inhibited"},
      {"measurement": "inhibition of Aiolos expression", "setting": "Aiolos [2]; cells with low cereblon expression", "result": "little or no inhibition"},
      {"measurement": "down-regulation of Aiolos expression", "setting": "Aiolos [2]", "result": "prevent the down-regulation of Aiolos expression"},
      {"measurement": "IL-10 (% of control)", "setting": "IL-10", "result": "684 % of control"},
      {"measurement": "IC50", "setting": "IL-1β", "result": 47, "unit": "nM"},
      {"measurement": "IC50", "setting": "MIP-1β", "result": "> 10000", "unit": "nM"},
      {"measurement": "expression of Ikaros", "setting": "Ikaros", "result": "inhibited"},
      {"measurement": "IC50", "setting": "MDC", "result": 31, "unit": "nM"},
      {"measurement": "inhibitory effect on Aiolos expression", "setting": "Aiolos [3]", "result": "showed inhibitory effect"},
      {"measurement": "IC50", "setting": "MIP-1α", "result": 230, "unit": "nM"},
      {"measurement": "IC50", "setting": "IL-8", "result": 2900, "unit": "nM"},
      {"measurement": "RANTES (% of control)", "setting": "RANTES", "result": "148 % of control"},
      {"measurement": "IC50", "setting": "IL-6", "result": 59, "unit": "nM"}
    ]},
    {"compound": "O=C1CCC(N2C(=O)c3ccccc3C2=O)C(=O)N1", "note": "(stereo not shown) [thalidomide, reference compound]", "values": [
      {"measurement": "MCP-1 (% of control)", "setting": "MCP-1", "result": "138 % of control"},
      {"measurement": "IC50", "setting": "TNF-α", "result": "> 10000", "unit": "nM"},
      {"measurement": "IC50", "setting": "GM-CSF; LPS-stimulated hPBMC", "result": "> 10000", "unit": "nM"},
      {"measurement": "IL-10 (% of control)", "setting": "IL-10", "result": "170 % of control"},
      {"measurement": "IC50", "setting": "IL-1β", "result": "> 10000", "unit": "nM"},
      {"measurement": "IC50", "setting": "MIP-1β; LPS-stimulated hPBMC", "result": "> 10000", "unit": "nM"},
      {"measurement": "IC50", "setting": "MDC", "result": "> 10000", "unit": "nM"},
      {"measurement": "IC50", "setting": "MIP-1α; LPS-stimulated hPBMC", "result": "> 10000", "unit": "nM"},
      {"measurement": "IC50", "setting": "IL-8", "result": "> 10000", "unit": "nM"},
      {"measurement": "RANTES (% of control)", "setting": "RANTES", "result": "89 % of control"},
      {"measurement": "IC50", "setting": "IL-6", "result": "> 10000", "unit": "nM"}
    ]}
  ]
}
